Structures are written as SMILES.

Experimental findings from patent US4933347A, “Diamidines and bis(imidazolines) for the treatment of and prophylaxis against pneumocystis carinii pneumonia” (University of North Carolina at Chapel Hill, priority 1988, dated 1990) are described below.

For the experiment, the system named is Pneumocystis carinii. As to the kind of experiment: Treatment of Pneumocystis carinii pneumonia in Sprague-Dawley rats (extent of disease by histologic score). The class given is in vivo, male Sprague-Dawley rats. The settings on record: for Extent of Disease by Histologic Score: number of animals with score 0.5 / Extent of disease by histologic score (combined): number of animals in scoring group 0.5: 0.5 = <10 cysts found per 2 sections; for Extent of Disease by Histologic Score: number of animals with score 1 / Extent of disease by histologic score (combined): number of animals in scoring group 1: 1 = scattered cysts, <5% of lung involved; for Extent of Disease by Histologic Score: number of animals with score 2 / Extent of disease by histologic score (combined): number of animals in scoring group 2: 2 = scattered cysts; for Extent of Disease by Histologic Score: number of animals with score 2: 5-10% lung involved or small foci of infection; for Extent of Disease by Histologic Score: number of animals with score 3 / Extent of disease by histologic score (combined): number of animals in scoring group 3: 3 = scattered cysts; for Extent of disease by histologic score (combined): number of animals in scoring group 0.5 / Extent of disease by histologic score (combined): number of animals in scoring group 1 / Extent of disease by histologic score (combined): number of animals in scoring group 2 / Extent of disease by histologic score (combined): number of animals in scoring group 3 / Extent of disease by histologic score (combined): number of animals in scoring group 4: Table XII composite; for Extent of disease by histologic score (combined): number of animals in scoring group 2: 5-10% of lung involved. The procedure: Induction and Treatment Of Pneumocystis Carinii in Sprague-Dawley Rats
Male Sprague-Dawley rats, barrier raised, non-certified virus free, weighing 150-200g were obtained from Hilltop Laboratories and housed individually. Animals were begun on a low (8%) protein diet (ICN Biomedicals, Cincinnati, OH) and drinking water containing tetracycline (0.5 mg/ml) and dexamethasone (1.0 μg/ml) immediately upon arrival. This treatment was given for the next 8 weeks, monitoring fluid intake daily and weighing animals weekly. Dilutions of the drinking solution were made when animals consumed too much fluid so as to prevent cortisone poisoning. At the beginning of the sixth week, animals were divided into groups of 8 animals each and the test compounds were administered daily by i.v. injection at a dose of 10 mg/kg, unless otherwise noted, for the next 14 days.
Animals were sacrificed at the end of the eighth week by chloroform inhalation and the left lung was removed aseptically and placed in sterile Hank's balanced salts solution without calcium or magnesium (HBSS-) for the ground tissue procedure. The right lung was inflated in situ with 10% […] and removed for histologic examination GMS staining. […]

Where [1] appears, read: 10 mg/kg i.v. daily, 14 days, 10-50% of lung involved with some intense areas of infection.
Setting [2] is: 10 mg/kg i.v. daily, 14 days, 4 = >50% of lung involved with many intense areas of focal infection.
[3] abbreviates: 10 mg/kg, 10-50% of lung involved.
Setting [4] is: 10 mg/kg, 4 = >50% of lung involved.
The mark [5] stands for this setting: 10 mg/kg unless otherwise noted.
The mark [6] stands for this setting: 1.25 mg/kg (dose from Table XII footnote e).

Turning to `N=C(N)c1cccc(OCCCCOc2cccc(C(=N)N)c2)c1` [Example 27], for the setting “10 mg/kg i.v. daily, 14 days”, the “Extent of Disease by Histologic Score: number of animals with score 0.5” value was found to be 2 animals, the “Extent of Disease by Histologic Score: number of animals with score 1” value is on record as 1 animals and the “Extent of Disease by Histologic Score: number of animals with score 2” value worked out at 1 animals. Moreover, under setting [1], the “Extent of Disease by Histologic Score: number of animals with score 3” value was found to be 3 animals. Also, under setting [2], the “Extent of Disease by Histologic Score: number of animals with score 4” value is 0 animals. Where the note is “10 mg/kg”, the “Extent of disease by histologic score (combined): number of animals in scoring group 0.5” value came out at 2 animals, the “Extent of disease by histologic score (combined): number of animals in scoring group 1” value was 1 animals and the “Extent of disease by histologic score (combined): number of animals in scoring group 2” value came out at 1 animals. Besides, the “Extent of disease by histologic score (combined): number of animals in scoring group 3” value under setting [3] was determined as 3 animals. The “Extent of disease by histologic score (combined): number of animals in scoring group 4” value under setting [4] was 0 animals.
Regarding `N=C(N)c1ccc(OCCCCOc2ccc(C(=N)N)cc2N)c(N)c1` [Example 10], for the setting “10 mg/kg i.v. daily, 14 days”, the “Extent of Disease by Histologic Score: number of animals with score 0.5” value was 2 animals, the “Extent of Disease by Histologic Score: number of animals with score 1” value is listed as 5 animals and the “Extent of Disease by Histologic Score: number of animals with score 2” value is recorded as 1 animals. Also, under setting [1], the “Extent of Disease by Histologic Score: number of animals with score 3” value came to 0 animals. The “Extent of Disease by Histologic Score: number of animals with score 4” value under setting [2] stood at 0 animals. Under setting [5], the “Efficacy in treating PCP compared with control” value is “significantly better than the control” and the “Efficacy in treating PCP compared with pentamidine” value is reported as “approximately comparable to pentamidine in efficacy”. For the same compound, where the note is “10 mg/kg”, the “Extent of disease by histologic score (combined): number of animals in scoring group 0.5” value is reported as 2 animals, the “Extent of disease by histologic score (combined): number of animals in scoring group 1” value worked out at 5 animals and the “Extent of disease by histologic score (combined): number of animals in scoring group 2” value was 1 animals. Besides, under setting [3], the “Extent of disease by histologic score (combined): number of animals in scoring group 3” value is listed as 0 animals. Further, under setting [4], the “Extent of disease by histologic score (combined): number of animals in scoring group 4” value was 0 animals.
On to `N=C(N)c1ccc(OCCCCCCOc2ccc(C(=N)N)cc2[N+](=O)[O-])c([N+](=O)[O-])c1` [Example 21], for which, under setting [6], the “Extent of Disease by Histologic Score: number of animals with score 0.5” value is 4 animals, the “Extent of Disease by Histologic Score: number of animals with score 1” value is 1 animals and the “Extent of Disease by Histologic Score: number of animals with score 2” value is 1 animals. Besides, under “1.25 mg/kg (dose from Table XII footnote e), 10-50% of lung involved”, the “Extent of Disease by Histologic Score: number of animals with score 3” value is 0 animals. Besides, the “Extent of Disease by Histologic Score: number of animals with score 4” value (1.25 mg/kg (dose from Table XII footnote e), 4 = >50% of lung involved) was 0 animals. Besides, where the note is “tested at 1.25 mg/kg”, the “Extent of disease by histologic score (combined): number of animals in scoring group 0.5” value came out at 4 animals, the “Extent of disease by histologic score (combined): number of animals in scoring group 1” value came to 1 animals and the “Extent of disease by histologic score (combined): number of animals in scoring group 2” value was 1 animals. The “Extent of disease by histologic score (combined): number of animals in scoring group 3” value (tested at 1.25 mg/kg, 10-50% of lung involved) turned out to be 0 animals. Further, the “Extent of disease by histologic score (combined): number of animals in scoring group 4” value (tested at 1.25 mg/kg, 4 = >50% of lung involved) was 0 animals.
As for `N=C(N)c1ccc(NCCCCCCNc2ccc(C(=N)N)cc2N)c(N)c1` [Example 23], where the note is “10 mg/kg i.v. daily, 14 days”, the “Extent of Disease by Histologic Score: number of animals with score 0.5” value stood at 3 animals, the “Extent of Disease by Histologic Score: number of animals with score 1” value worked out at 1 animals and the “Extent of Disease by Histologic Score: number of animals with score 2” value is on record as 2 animals. Also, the “Extent of Disease by Histologic Score: number of animals with score 3” value under setting [1] is reported as 0 animals. The “Extent of Disease by Histologic Score: number of animals with score 4” value under setting [2] was found to be 1 animals. Besides, under “10 mg/kg”, the “Extent of disease by histologic score (combined): number of animals in scoring group 0.5” value was determined as 3 animals, the “Extent of disease by histologic score (combined): number of animals in scoring group 1” value is on record as 1 animals and the “Extent of disease by histologic score (combined): number of animals in scoring group 2” value amounted to 2 animals. The “Extent of disease by histologic score (combined): number of animals in scoring group 3” value under setting [3] was determined as 0 animals. Besides, the “Extent of disease by histologic score (combined): number of animals in scoring group 4” value under setting [4] worked out at 1 animals.
